The record followed here is patent US6448401B1, “Process for water soluble azole compounds” (Bristol-Myers Squibb Company, priority 2000, dated 2002).

The nature of one data set: aqueous solubility. Conditions: for solubility (in words): crystalline salts.
Data set [1] can be described thus: conversion of prodrug to parent drug in vivo.
The nature of data set [2]: stability (in solution / of salts). The settings on record: for stability (in words): crystalline salts.

Structures are written as SMILES. Values after ≈ are worked out from the molar mass of the structure shown.

In turn, `C[C@@H](c1nc(-c2ccc(C#N)cc2)cs1)[C@](O)(Cn1cncn1)c1ccc(F)cc1F` [(2R,3R)-3-[4-(4-cyanophenyl)thiazol-2-yl]-2-(2,4-difluorophenyl)-1-(1 H-1,2,4-triazol-1-yl)-butan-2-ol, reference compound] yielded a solubility in “aqueous solubility” (water, pH 6.8, water) of 0.6 µg/mL (≈ 0.00137 mM).

As for `C[C@@H](c1nc(-c2ccc(C#N)cc2)cs1)[C@@](Cn1cncn1)(OCOP(=O)(O)O)c1ccc(F)cc1F` [Example 2, (2R,3R)-3-[4-(4-cyanophenyl)thiazol-2-yl]-2-(2,4-difluorophenyl)-1-(1H-1,2,4-triazol-1-yl)-2-[(dihydrogenphosphonoxy)methoxy]butane], in data set [1], the “conversion to parent drug in vivo” value is on record as “readily converted to parent drug in vivo”. Moreover, the solubility was 5000 to 6000 µg/mL (≈ 9.13 to 11 mM) in “aqueous solubility” (aqueous solution, pH 4.3, aqueous buffer) and above 10000 µg/mL in “aqueous solubility” (aqueous solution, pH 7, aqueous buffer). Also, in data set [2] (in solution), the stability in solution result was “stable in solution”.

In the case of `C[C@@H](c1nc(-c2ccc(C#N)cc2)cs1)[C@@](Cn1cncn1)(OCOP(=O)(O)O)c1ccc(F)cc1F.NCCCC[C@H](N)C(=O)O.NCCCC[C@H](N)C(=O)O` [Example 3, Bis lysine salt of (2R,3R)-3-[4-(4-cyanophenyl)thiazol-2-yl]-2-(2,4-difluorophenyl)-1-(1H-1,2,4-triazol-1-yl)-2-[(dihydrogenphosphonoxy)methoxy]butane], the “solubility (in words)” value in the data set “aqueous solubility” was “good solubility”. Moreover, the “stability (in words)” value in data set [2] was “good solubility and stability”.

In the case of `CC(C)(C)N.C[C@@H](c1nc(-c2ccc(C#N)cc2)cs1)[C@@](Cn1cncn1)(OCOP(=O)(O)O)c1ccc(F)cc1F` [Example 4, Tert-butyl amine salt of (2R,3R)-3-[4-(4-cyanophenyl)thiazol-2-yl]-2-(2,4-difluorophenyl)-1-(1H-1,2,4-triazol-1-yl)-2-[(dihydrogenphosphonoxy)methoxy]butane], the “solubility (in words)” value in the data set “aqueous solubility” is recorded as “good solubility”. Also, the “stability (in words)” value in data set [2] was “good solubility and stability”.

Broadly, the solubility is how much of the substance goes into solution per volume. Higher therefore signals much dissolved substance.
